Source: patent US10124004B2, “Pyrido[3,4-d]pyrimidine derivative and pharmaceutically acceptable salt thereof” (Teijin Pharma Limited, priority 2015, dated 2018)

Key:
CDK2/cyclin A2 = biological target: T1, CDK2/cyclin A2 (Homo sapiens, UniProt P24941); experiment: Human CDK2/cyclin A2 inhibitory activity (QS S Assist CDK2/Cyclin A2_FP Kit, IMAP fluorescence polarization); assay type: biochemical; conditions: 50% inhibitory concentration against CDK2/cyclin A2, given as class symbol
T1 construct: purchased Carna Biosciences, Inc. QS S Assist CDK2/Cyclin A2_FP Kit
Outline: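 Kinase activity read as fluorescence polarization (485/535 nm) after phosphorylated fluorescent substrate binds IMAP reagent (30 min, RT, dark). Enzyme (2.5 ng/well) reacted 60 min at RT with ATP/substrate/metal in HEPES pH 7.4 buffer with Tween 20 and DTT; no-enzyme wells define 0% activity; IC50 by curve fit.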

CDK4/cyclin D3 = biological target: T2, CDK4/cyclin D3 (Homo sapiens, UniProt P11802); experiment: Human CDK4/cyclin D3 inhibitory activity (QS S Assist CDK4/Cyclin D3_FP Kit, IMAP fluorescence polarization); assay type: biochemical; conditions: 50% inhibitory concentration against CDK4/cyclin D3, given as class symbol
T2 construct: purchased Carna Biosciences, Inc. QS S Assist CDK4/Cyclin D3_FP Kit
Outline: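 IMAP fluorescence-polarization kinase assay with kit ATP/substrate/metal mix and 12.5 to 25 ng/well enzyme in 20 mM HEPES pH 7.4, 0.01% Tween20, 2 mM DTT. Reaction ran 45 min at room temperature, then binding reagent was added for 30 min in the dark. IC50 was taken from dose-response fits of percent inhibition.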

T2 sequence (P11802 whole entry): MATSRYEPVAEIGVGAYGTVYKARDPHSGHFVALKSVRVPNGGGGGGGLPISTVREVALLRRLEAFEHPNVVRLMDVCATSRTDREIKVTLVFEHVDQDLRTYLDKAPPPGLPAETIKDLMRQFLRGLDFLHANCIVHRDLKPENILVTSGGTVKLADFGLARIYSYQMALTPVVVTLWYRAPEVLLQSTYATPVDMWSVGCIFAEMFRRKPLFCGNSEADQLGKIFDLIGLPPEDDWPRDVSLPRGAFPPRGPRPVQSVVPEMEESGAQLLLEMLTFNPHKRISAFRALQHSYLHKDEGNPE
T2 sequence (P30281 whole entry partner): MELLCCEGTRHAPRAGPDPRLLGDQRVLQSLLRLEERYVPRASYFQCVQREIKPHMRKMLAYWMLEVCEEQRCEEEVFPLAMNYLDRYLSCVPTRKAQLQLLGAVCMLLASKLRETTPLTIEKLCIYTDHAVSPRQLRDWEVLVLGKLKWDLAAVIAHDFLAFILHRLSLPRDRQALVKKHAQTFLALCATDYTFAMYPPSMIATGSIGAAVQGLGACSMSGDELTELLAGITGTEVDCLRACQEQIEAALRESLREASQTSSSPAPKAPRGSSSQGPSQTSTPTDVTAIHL

| SMILES | IC50 (CDK2/cyclin A2) [nM] | IC50 (CDK4/cyclin D3) [nM] |
| --- | --- | --- |
| CO[C@H](C)c1cc2cnc(Nc3ccc(N4CCN(C(=O)C5CCCO5)CC4)nn3)nc2c(NC(C)C)n1 (stereo partly drawn) [Compound 1176] | ≥ 100 | < 10 |
| CO[C@H](C)c1cc2cnc(Nc3ccc(N4CCN(C(=O)C5CCOC5)CC4)nn3)nc2c(NC(C)C)n1 (stereo partly drawn) [Compound 1177] | ≥ 100 | < 10 |
| CN(C)CCN1CCc2nc(Nc3ncc4cc(C5CCOC5)nc(N[C@H]5CCCOC5)c4n3)ccc2C1 (stereo partly drawn) [Compound 1178] | ≥ 100 | < 10 |
| CN(C)CCN1CCc2nc(Nc3ncc4cc(C5(C)COC5)nc(N[C@H]5CCCOC5)c4n3)ccc2C1 [Compound 1179] | ≥ 100 | < 10 |
| CO[C@H](C)c1cc2cnc(Nc3ccc4c(n3)CCN(CCN(C)C)C4)nc2c(N[C@H]2CC[C@H](O)CC2)n1 [Compound 1180] | ≥ 100 | < 10 |
| CN(C)CCN1CCc2nc(Nc3ncc4cc(C5CCOC5)nc(N[C@H]5CC[C@H](O)CC5)c4n3)ccc2C1 (stereo partly drawn) [Compound 1181] | ≥ 100 | < 10 |
| CN(C)CCN1CCc2nc(Nc3ncc4cc(C5(C)COC5)nc(N[C@H]5CC[C@H](O)CC5)c4n3)ccc2C1 [Compound 1182] | ≥ 100 | < 10 |
| CC(C)Nc1nc([C@@H](C)O)cc2cnc(Nc3ccc(N4CCN(C(=O)C5CCCO5)CC4)nn3)nc12 (stereo partly drawn) [Compound 1183] | ≥ 100 | < 10 |
| CCCCNc1nc([C@@H](C)O)cc2cnc(Nc3ccc(CN4CCC[C@@H](O)C4)cn3)nc12 [Compound 1185] | ≥ 100 | < 10 |
| CC(C)CNc1nc([C@@H](C)O)cc2cnc(Nc3ccc(CN4CCC[C@@H](O)C4)cn3)nc12 [Compound 1186] | ≥ 100 | < 10 |
| C[C@@H](O)c1cc2cnc(Nc3ccc(CN4CCC[C@@H](O)C4)cn3)nc2c(N[C@H]2CC[C@H](O)CC2)n1 [Compound 1187] | ≥ 100 | < 10 |
| CCCCNc1nc([C@@H](C)O)cc2cnc(Nc3ccc(CN4CCC[C@H](O)C4)cn3)nc12 [Compound 1188] | ≥ 100 | < 10 |
| CC(C)CNc1nc([C@@H](C)O)cc2cnc(Nc3ccc(CN4CCC[C@H](O)C4)cn3)nc12 [Compound 1189] | ≥ 100 | < 10 |
| C[C@@H](O)c1cc2cnc(Nc3ccc(CN4CCC[C@H](O)C4)cn3)nc2c(N[C@H]2CC[C@H](O)CC2)n1 [Compound 1190] | ≥ 100 | < 10 |
| CC(C)Nc1nc([C@@H](C)O)cc2cnc(Nc3ccc(N4CCN(C(=O)CN(C)C)CC4)nn3)nc12 [Compound 1191] | ≥ 100 | < 10 |
| CC(C)Nc1nc([C@@H](C)O)cc2cnc(Nc3ccc(CN4CCN(C(=O)C5CCCO5)CC4)cn3)nc12 (stereo partly drawn) [Compound 1192] | ≥ 100 | < 10 |
| CC(C)Nc1nc([C@@H](C)O)cc2cnc(Nc3ccc(CN4CCN(C(=O)C5CCOC5)CC4)cn3)nc12 (stereo partly drawn) [Compound 1193] | ≥ 100 | < 10 |
| CC(C)Nc1nc([C@@H](C)O)cc2cnc(Nc3ccc(CN4CCN(C(=O)CN(C)C)CC4)cn3)nc12 [Compound 1194] | ≥ 100 | < 10 |
| CCCNc1nc([C@@H](C)O)cc2cnc(Nc3ccc(CN4CCC[C@@H](O)C4)cn3)nc12 [Compound 1195] | ≥ 100 | < 10 |
| CC(C)Nc1nc([C@@H](C)O)cc2cnc(Nc3ccc(CN4CCC[C@@H](O)C4)cn3)nc12 [Compound 1196] | ≥ 100 | < 10 |
| C[C@@H](O)c1cc2cnc(Nc3ccc(CN4CCC[C@@H](O)C4)cn3)nc2c(NC(C)(C)C)n1 [Compound 1197] | ≥ 100 | < 10 |
| CCNc1nc([C@@H](C)O)cc2cnc(Nc3ccc(CN4CC5CCC(C4)N5C)cn3)nc12 [Compound 1222] | ≥ 100 | < 10 |
| CCCNc1nc([C@@H](C)O)cc2cnc(Nc3ccc(CN4CC5CCC(C4)N5C)cn3)nc12 [Compound 1223] | ≥ 100 | < 10 |

Other lines, results leading:

| IC50 (CDK2/cyclin A2) [nM] | IC50 (CDK4/cyclin D3) [nM] | SMILES |
| --- | --- | --- |
| ≥ 100 | < 10 | CCCNc1nc([C@@H](C)O)cc2cnc(Nc3ccc(CN4CCC[C@H](O)C4)cn3)nc12 [Compound 1198] |
| ≥ 100 | < 10 | CC(C)Nc1nc([C@@H](C)O)cc2cnc(Nc3ccc(CN4CCC[C@H](O)C4)cn3)nc12 [Compound 1199] |
| ≥ 100 | < 10 | C[C@@H](O)c1cc2cnc(Nc3ccc(CN4CCC[C@H](O)C4)cn3)nc2c(NC(C)(C)C)n1 [Compound 1200] |
| ≥ 100 | < 10 | C[C@@H](O)c1cc2cnc(Nc3ccc(CN4CCN(CCO)CC4)cn3)nc2c(NC2(C)CC2)n1 [Compound 1201] |
| ≥ 100 | < 10 | CCNc1nc([C@@H](C)O)c(F)c2cnc(Nc3ccc(CN4CCN(CCO)CC4)cn3)nc12 [Compound 1202] |
| ≥ 100 | 10 to 100 | CCNc1nc([C@@H](C)O)cc2cnc(Nc3ccc(CN4CCN(CCO)CC4(C)C)cn3)nc12 [Compound 1203] |
| ≥ 100 | < 10 | C[C@@H](O)c1cc2cnc(Nc3ccc(CN4CCN(CCO)CC4)cn3)nc2c(NC2CC(F)(F)C2)n1 [Compound 1204] |
| ≥ 100 | < 10 | C[C@@H](O)c1cc2cnc(Nc3ccc(CN4CCN(CCO)CC4)cn3)nc2c(NC23CC(C2)C3)n1 [Compound 1205] |
| ≥ 100 | < 10 | CCCNc1nc([C@@H](C)O)cc2cnc(Nc3ccc(CN4CCN(CCO)[C@@H](C)C4)cn3)nc12 [Compound 1208] |
| ≥ 100 | < 10 | CCCNc1nc([C@@H](C)O)cc2cnc(Nc3ccc(CN4CCN(CCO)[C@H](C)C4)cn3)nc12 [Compound 1209] |
| ≥ 100 | < 10 | C[C@@H](O)c1cc2cnc(Nc3ccc(N4CCNCC4=O)cn3)nc2c(NC2CC(F)C2)n1 (stereo partly drawn) [Compound 1210] |
| ≥ 100 | 10 to 100 | C[C@@H](O)c1cc2cnc(Nc3ccc(N4CCNCC4=O)cn3)nc2c(NC2CC(F)(F)C2)n1 [Compound 1211] |
| ≥ 100 | < 10 | C[C@@H](O)c1cc2cnc(Nc3ccc(N4CCNCC4)cn3)nc2c(NCCCF)n1 [Compound 1212] |
| ≥ 100 | < 10 | C[C@@H](O)c1cc2cnc(Nc3ccc(CN4CCN(CCO)CC4)cn3)nc2c(NCCC(F)F)n1 [Compound 1213] |
| ≥ 100 | < 10 | C[C@@H](O)c1cc2cnc(Nc3ccc(CN4CCN(CCO)CC4)cn3)nc2c(NCCC(F)(F)F)n1 [Compound 1214] |
| ≥ 100 | < 10 | C[C@@H](O)c1cc2cnc(Nc3ccc(CN4CCN(CCO)CC4)cn3)nc2c(NCC(C)(F)F)n1 [Compound 1215] |

| IC50 (CDK2/cyclin A2) [nM] | IC50 (CDK4/cyclin D3) [nM] | SMILES |
| --- | --- | --- |
| ≥ 100 | < 10 | CCNc1nc([C@@H](C)O)cc2cnc(Nc3ccc(CN4CCCN(CCO)CC4)cn3)nc12 [Compound 1216] |
| ≥ 100 | 10 to 100 | CC(C)Nc1nc([C@H](C)O)cc2cnc(Nc3ccc(N4CCNCC4=O)cn3)nc12 [Compound 1217] |
| ≥ 100 | < 10 | C[C@@H](O)c1cc2cnc(Nc3ccc(N4CCCC(C(=O)O)C4)nn3)nc2c(N[C@H]2CC[C@H](O)CC2)n1 (stereo partly drawn) [Compound 1218] |
| ≥ 100 | < 10 | CC(C)Nc1nc([C@@H](C)O)cc2cnc(Nc3ccc(N4CCC(N(C)C)C4)nn3)nc12 (stereo partly drawn) [Compound 1219] |
| ≥ 100 | < 10 | CC(C)Nc1nc([C@@H](C)O)cc2cnc(Nc3ccc(N4CCCC(N(C)C)C4)nn3)nc12 (stereo partly drawn) [Compound 1220] |
| ≥ 100 | < 10 | CCCNc1nc([C@@H](C)O)cc2cnc(Nc3ccc(C(=O)N4CCN(C)CC4)cn3)nc12 [Compound 1221] |
| ≥ 100 | < 10 | CC(C)Nc1nc([C@@H](C)O)cc2cnc(Nc3ccc(CN4CC5CCC(C4)N5C)cn3)nc12 [Compound 1224] |
| ≥ 100 | < 10 | CC(C)Nc1nc([C@@H](C)O)cc2cnc(Nc3ccc(CN4CCNCC4)nn3)nc12 [Compound 1225] |
| ≥ 100 | < 10 | CO[C@H](C)c1cc2cnc(Nc3ccc(N4CCNCC4)nn3)nc2c(NCCCF)n1 [Compound 1226] |
| ≥ 100 | < 10 | CO[C@H](C)c1cc2cnc(Nc3ccc(CN4CCNCC4)cn3)nc2c(NCCCF)n1 [Compound 1227] |
| ≥ 100 | < 10 | CC(C)Nc1nc([C@@H](C)O)cc2cnc(Nc3ccc(N(C)CCN(C)C)cn3)nc12 [Compound 1228] |
| ≥ 100 | < 10 | CC(C)Nc1nc(C2CCOC2)cc2cnc(Nc3ccc4c(n3)CCN(CCO)C4)nc12 (stereo not drawn) [Compound 1229] |
| ≥ 100 | < 10 | CC(C)Nc1nc(C2CCOC2)cc2cnc(Nc3ccc4c(n3)CCN(CCN(C)C)C4)nc12 (stereo not drawn) [Compound 1230] |
| ≥ 100 | < 10 | CC(C)Nc1nc(C2CCOC2)cc2cnc(Nc3ccc4c(n3)CCN(C(=O)CO)C4)nc12 (stereo not drawn) [Compound 1231] |
| ≥ 100 | < 10 | CC(C)Nc1nc(C2CCOC2)cc2cnc(Nc3ccc4c(n3)CCN(CC(=O)O)C4)nc12 (stereo not drawn) [Compound 1232] |
